Assay results reported in article PMC9324412 (Viruses, 2022).

How the values were obtained:
[1] = test system: HIV-1 pNL4-3 WT; assay: Late-stage single replication cycle antiviral assay, WT virus; assay type: cell-based; details: Human immunodeficiency virus 1, TZM-bl, read-out: WT-IC50 (antiviral activity)
[2] = test system: HIV-1 pNL4-3 A128T IN mutant; assay: Late-stage single replication cycle antiviral assay, A128T IN mutant virus; assay type: cell-based; details: Human immunodeficiency virus 1, TZM-bl, read-out: A128T-IC50 (antiviral activity)

Row | SMILES | IC50 [1] | IC50 [2]
1 | Cc1nc2ccccc2c(-c2ccc3c(c2)OCCO3)c1C(OC(C)(C)C)C(=O)O (stereo not drawn) [Compound 2] | 700 ± 100 nM | 1100 ± 200 nM
2 | Cc1nc2c(Br)cccc2c(-c2ccc3c(c2)OCCO3)c1C(OC(C)(C)C)C(=O)O (stereo not drawn) [Compound 16ba] | 600 ± 100 nM | 300 ± 100 nM
3 | Cc1nc2ccc(Br)cc2c(-c2ccc3c(c2)OCCO3)c1C(OC(C)(C)C)C(=O)O (stereo not drawn) [Compound 17] | 300 ± 100 nM | 10200 ± 2500 nM
